Results from patent US20230190650A1 (The University of North Carolina at Chapel Hill, priority 2020, published 2023).
Where a name gives a salt, the structure may show the parent alone.

What was measured:
[1] = Method: (§1) Identical samples were prepared with 0.5 g/L EDTA added as preservative). These aliquots were quantified by HPLC, alongside aliquots of the formulation (both with and without EDTA) treated in the same manner, which were dissolved in ethanol immediately before quantification.
(§2) The column was a YMC-Pack Pro C18 column (3 µm particle size, 120 Å pore size, 4.6 x 150 mm) and mobile phase was 30 mM potassium phosphate, 0.16% trimethylamine, adjusted to pH 4.9 with phosphoric acid, 30% Acetonitrile.
(§3) “Fridge” samples stored at 4° C., “Heat” at 40° C., “Light” on bench in clear vials. An “E” after the storage condition indicates samples with 5 g/L EDTA added as preservative.

[2] = Stability of drugs in the anesthetic formulation (HPLC); type: physicochemical; settings: eutectic emulsion formulation
Method: as §1, §2, §3

[3] = In vitro dissolution testing of LBB-111 (release into PBS from 3D printed socket); type: physicochemical; settings: from LBB-111; PBS pH 7.4, 37° C.
Method: As a first step to approximate release properties of LBB-111, we performed in vitro dissolution testing under various conditions. […] Mixing was accomplished using the smaller “mini” spin paddles at 59 rpm. Dissolution media [900 mL Phosphate buffered saline (PBS), pH 7.4] was equilibrated at 37° C. overnight before the start of a run. To mimic a human molar socket, cylindrical chambers with internal dimensions approximately 1 cm tall and 1 cm in diameter, with a high infill base to give the socket weight and stability were 3D printed at the UNC BeAM […] using an Ultimaker 3. Sockets were filled to the rim with formulation using an 18 g needle, and the formulation weight (around 0.8 g for these sockets) was recorded. The flat base of the socket was placed on the bottom of each dissolution chamber and mixing initiated. […] Referring now to FIG. 6, the graph illustrates drug released into PBS medium plotted as the fraction of the total that was present in the formulation at the start (% released). […] Formulation samples were dissolved in 19-times their weight (final conc. 5% wt) 200-proof ethanol, the ethanol dissolved samples were then diluted 5-fold into distilled water, and 10 μL of this dilution was injected.

[4] = cited from earlier work; for logD7.4: pH 7.4
[5] = local anesthetic activity profile; cited from earlier work
[6] = Partitioning of small molecules between aqueous phase and oily eutectic; type: physicochemical; settings: after 10 minutes of mixing; 0.5 g/L bupivacaine-HCl, 5 g/L chlorobutanol, 25 g/L benzyl alcohol

Structure (SMILES)	degradation in solution [1]	time to becoming undetectable in solution ([1]; saliva analogue buffer, light or heat (40° C.) conditions, without EDTA) [days]	degradation in the formulation without EDTA [2]	relative release rate [3]	pKa [4]	logD7.4 [4]	Duration [5]	Onset [5]	Potency [5]	logP [4]	degradation in solution, Heat sample with EDTA [1]	presence in the aqueous phase after mixing with the eutectic [6]
CCOC(=O)c1ccc(N)cc1 [Benzocaine]	almost undetectable	≤ 10	lack of benzocaine degradation	fastest	2.8	1.86	Short	Fast	Low	–	–	–
CCCCN1CCCCC1C(=O)Nc1c(C)cccc1C (stereo not shown) [Bupivacaine]	–	–	–	slowest	–	2.39	Long	Moderate	High	3.41	–	–
CCN(CC)CC(=O)Nc1c(C)cccc1C [Lidocaine]	almost undetectable	–	–	–	–	–	Moderate	Fast	Medium	–	some lidocaine degradation	–
OCc1ccccc1 [benzyl alcohol]	–	–	–	–	–	–	–	–	–	–	–	undetectable
CCCCN1CCCCC1C(=O)Nc1c(C)cccc1C (stereo not shown) [bupivacaine-HCl, bupivacaine hydrochloride]	–	–	–	–	–	–	–	–	–	–	–	undetectable
